Results on 17 molecules are retold here after patent US20230219986A1, “NOVEL AMINOPYRIMIDINE EGFR INHIBITOR” (QILU PHARMACEUTICAL CO., LTD., priority 2020, published 2023).

The target in test [1] is Ba/F3 De119/T790M/C797S EGFR triple mutant cell line (Homo sapiens, UniProt P00533, T790M/C797S, cells depend on it, form not given). Description: Cell proliferation inhibition experiment (CellTiter-Glo), Ba/F3 De119/T790M/C797S. It is filed as cell-based. The following applies: Ba/F3 Del19/T790M/C797S EGFR triple mutant cells, 72 hours, Cell Titer-Glo; read-out: Ba/F3 (Del19/T790M/C797S) IC50. On the procedure:
(§1) 3) 30 nL of gradient diluted compound was transferred into the 384-well experimental plate using Echo 550 (Labcyte) at a DMSO final concentration of 0.1%, and the culture plate was incubated in a cell incubator for 72 hours (37° C., 5% CO2).
(§2) 4) 30 μL of Cell Titer-Glo reagent was added to each well and left for 30 minutes at room temperature and protected from light.
(§3) 5) Envision microplate reader (PerkinElmer) detected chemiluminescence signals.
(§4) 6) GraphPad Prism 8 software was used for data analysis to obtain the IC50 of the compounds of the present disclosure and the positive control.

The target of test [2] is Ba/F3 L858R/T790M/C797S EGFR triple mutant cell line (Homo sapiens, UniProt P00533, T790M/C797S/L858R, cells depend on it). As to the kind of experiment: Cell proliferation inhibition experiment (CellTiter-Glo), Ba/F3 L858R/T790M/C797S. It is filed as cell-based. The settings on record: 72 hours, Cell Titer-Glo, read-out: Ba/F3 (L858R/T790M/C797S) IC50. On the procedure:
as §1, §2, §3, §4
A general note: Cellular ATP, detected with luciferase, serves as a proxy for viable cell number.

For test [3], the target named is T1, wild-type EGFR (Homo sapiens, UniProt P00533).
T1 construct: purchased Signalchem
As to the kind of experiment: Enzymology experiment in vitro (HTRF/FRET kinase activity), wild-type EGFR. The format is biochemical. The following applies: HTRF KinEASE-TK, read-out: EGFR (WT) IC50. As to the method:
(§5) 1. Experimental Materials
(§6) HTRF KinEASE-TK kit detection reagent, purchased from Cisbio
(§7) 1) 10 nL of gradient diluted compound was transferred into a 384-well experimental plate using Echo 550 (Labcyte).
(§8) 2) 5 μL of 2×EGFR enzyme solution was added to the 384-well experimental plate and incubated at room temperature for 10 minutes.
(§9) 3) 5 μL of 2× substrate solution containing polypeptide and ATP was added to the 384-well experimental plate and incubated at room temperature for 40 minutes.
(§10) 4) 10 μL of detection solution containing EDTA, XL665-labeled streptavidin and Eu^3+-labeled antibody was added thereto and incubated at room temperature for 1 hour.
(In general: In TR-FRET formats the signal depends on donor and acceptor labels being close together.)

In test [4] the target is T2, L858R/T790M/C797S triple mutant EGFR (Homo sapiens, UniProt P00533, C797S/L858R/T790M).
T2 construct: purchased Signalchem
Description: Enzymology experiment in vitro (HTRF/FRET kinase activity), L858R/T790M/C797S triple mutant EGFR. It is filed as biochemical. The following applies: HTRF KinEASE-TK, read-out: EGFR (L858R/T790M/C797S) IC50. On the procedure:
as §5, §6, §7, §8, §9, §10

The subject of test [5] is EGFR wild-type cell line A431. As to the kind of experiment: Cell proliferation inhibition experiment (CellTiter-Glo), A431. The format is cell-based. The settings on record: A431 cells, Cell Titer-Glo, read-out: A431 EGFR WT IC50. As to the method: A431 cells, purchased from ATCC.
1) A431 cells were inoculated in a 384-well culture plate at a density of 800 cells per well, 30 μL per well, placed in a cell incubator, and cultured for 24 hours (37° C., 5% CO2).
as §1, §2, §3, §4

Counter-ions that a name gives are not always drawn. Like-named read-outs stand apart in the source and are kept apart here.

Sequence of Ba/F3 L858R/T790M/C797S EGFR triple mutant cell line (P00533 whole entry T790M/C797S/L858R): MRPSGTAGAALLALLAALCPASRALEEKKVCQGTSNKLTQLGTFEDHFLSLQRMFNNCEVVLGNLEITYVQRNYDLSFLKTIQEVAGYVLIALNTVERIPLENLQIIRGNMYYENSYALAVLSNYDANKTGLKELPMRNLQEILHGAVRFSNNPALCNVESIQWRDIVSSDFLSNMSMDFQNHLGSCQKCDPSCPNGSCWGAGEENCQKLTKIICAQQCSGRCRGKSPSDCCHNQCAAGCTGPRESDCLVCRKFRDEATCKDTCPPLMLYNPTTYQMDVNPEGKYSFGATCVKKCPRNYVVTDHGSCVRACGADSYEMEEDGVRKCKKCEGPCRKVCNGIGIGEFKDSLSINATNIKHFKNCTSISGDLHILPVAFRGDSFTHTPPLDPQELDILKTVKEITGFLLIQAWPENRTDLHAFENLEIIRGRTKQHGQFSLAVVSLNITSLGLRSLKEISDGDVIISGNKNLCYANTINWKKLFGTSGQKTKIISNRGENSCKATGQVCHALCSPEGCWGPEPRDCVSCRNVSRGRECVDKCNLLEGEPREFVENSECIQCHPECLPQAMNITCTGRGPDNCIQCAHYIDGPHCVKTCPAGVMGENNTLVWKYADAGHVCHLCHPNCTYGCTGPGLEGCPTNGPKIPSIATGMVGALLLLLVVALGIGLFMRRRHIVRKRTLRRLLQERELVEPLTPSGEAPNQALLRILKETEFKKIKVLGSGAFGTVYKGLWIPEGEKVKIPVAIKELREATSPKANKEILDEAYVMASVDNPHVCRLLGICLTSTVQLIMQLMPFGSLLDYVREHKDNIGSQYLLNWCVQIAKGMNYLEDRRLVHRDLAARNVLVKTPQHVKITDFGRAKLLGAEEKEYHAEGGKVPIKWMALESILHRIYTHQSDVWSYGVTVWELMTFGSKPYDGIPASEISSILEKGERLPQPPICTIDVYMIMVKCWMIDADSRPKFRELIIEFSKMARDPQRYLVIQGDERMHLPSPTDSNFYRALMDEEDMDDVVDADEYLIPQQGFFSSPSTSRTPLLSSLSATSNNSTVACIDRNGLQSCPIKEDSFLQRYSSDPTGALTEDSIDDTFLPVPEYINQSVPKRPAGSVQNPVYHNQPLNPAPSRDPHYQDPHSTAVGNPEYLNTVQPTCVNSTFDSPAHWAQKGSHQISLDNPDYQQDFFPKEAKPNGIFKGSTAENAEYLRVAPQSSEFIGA
T2 sequence (P00533 25-1210 T790M/C797S/L858R): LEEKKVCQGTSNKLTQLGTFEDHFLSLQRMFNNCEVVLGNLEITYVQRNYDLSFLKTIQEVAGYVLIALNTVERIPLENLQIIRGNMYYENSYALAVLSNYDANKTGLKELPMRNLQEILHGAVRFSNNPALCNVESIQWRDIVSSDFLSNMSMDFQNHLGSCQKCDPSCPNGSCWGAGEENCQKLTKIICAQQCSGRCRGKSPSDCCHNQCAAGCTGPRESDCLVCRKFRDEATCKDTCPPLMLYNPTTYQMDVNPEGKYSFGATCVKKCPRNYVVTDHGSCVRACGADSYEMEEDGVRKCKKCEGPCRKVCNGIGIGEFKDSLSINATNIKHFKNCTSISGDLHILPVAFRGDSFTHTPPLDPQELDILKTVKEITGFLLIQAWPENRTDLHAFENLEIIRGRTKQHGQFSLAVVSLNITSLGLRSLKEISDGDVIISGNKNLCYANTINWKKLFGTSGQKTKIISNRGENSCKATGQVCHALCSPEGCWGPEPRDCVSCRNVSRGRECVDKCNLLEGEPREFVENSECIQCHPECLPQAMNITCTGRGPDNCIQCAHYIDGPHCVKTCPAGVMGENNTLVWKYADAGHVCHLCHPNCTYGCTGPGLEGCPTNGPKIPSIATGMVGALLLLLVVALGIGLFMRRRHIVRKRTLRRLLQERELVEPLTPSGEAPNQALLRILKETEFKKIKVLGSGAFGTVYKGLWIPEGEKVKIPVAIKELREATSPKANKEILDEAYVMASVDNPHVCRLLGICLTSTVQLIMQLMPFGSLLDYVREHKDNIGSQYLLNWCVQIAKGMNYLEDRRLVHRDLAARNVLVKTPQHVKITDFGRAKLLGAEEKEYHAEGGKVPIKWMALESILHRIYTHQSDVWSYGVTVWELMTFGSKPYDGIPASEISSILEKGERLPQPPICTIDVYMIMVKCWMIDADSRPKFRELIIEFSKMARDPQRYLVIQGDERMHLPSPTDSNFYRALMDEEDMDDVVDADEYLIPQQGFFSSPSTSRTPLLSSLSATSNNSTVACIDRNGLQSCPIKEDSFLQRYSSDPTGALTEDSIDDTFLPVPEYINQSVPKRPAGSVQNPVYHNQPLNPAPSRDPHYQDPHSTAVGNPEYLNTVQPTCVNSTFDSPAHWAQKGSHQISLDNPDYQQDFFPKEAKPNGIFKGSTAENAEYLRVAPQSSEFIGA
Sequence of Ba/F3 De119/T790M/C797S EGFR triple mutant cell line (P00533 with tags, fused parts or gaps DEL746-750/T790M/C797S, form open): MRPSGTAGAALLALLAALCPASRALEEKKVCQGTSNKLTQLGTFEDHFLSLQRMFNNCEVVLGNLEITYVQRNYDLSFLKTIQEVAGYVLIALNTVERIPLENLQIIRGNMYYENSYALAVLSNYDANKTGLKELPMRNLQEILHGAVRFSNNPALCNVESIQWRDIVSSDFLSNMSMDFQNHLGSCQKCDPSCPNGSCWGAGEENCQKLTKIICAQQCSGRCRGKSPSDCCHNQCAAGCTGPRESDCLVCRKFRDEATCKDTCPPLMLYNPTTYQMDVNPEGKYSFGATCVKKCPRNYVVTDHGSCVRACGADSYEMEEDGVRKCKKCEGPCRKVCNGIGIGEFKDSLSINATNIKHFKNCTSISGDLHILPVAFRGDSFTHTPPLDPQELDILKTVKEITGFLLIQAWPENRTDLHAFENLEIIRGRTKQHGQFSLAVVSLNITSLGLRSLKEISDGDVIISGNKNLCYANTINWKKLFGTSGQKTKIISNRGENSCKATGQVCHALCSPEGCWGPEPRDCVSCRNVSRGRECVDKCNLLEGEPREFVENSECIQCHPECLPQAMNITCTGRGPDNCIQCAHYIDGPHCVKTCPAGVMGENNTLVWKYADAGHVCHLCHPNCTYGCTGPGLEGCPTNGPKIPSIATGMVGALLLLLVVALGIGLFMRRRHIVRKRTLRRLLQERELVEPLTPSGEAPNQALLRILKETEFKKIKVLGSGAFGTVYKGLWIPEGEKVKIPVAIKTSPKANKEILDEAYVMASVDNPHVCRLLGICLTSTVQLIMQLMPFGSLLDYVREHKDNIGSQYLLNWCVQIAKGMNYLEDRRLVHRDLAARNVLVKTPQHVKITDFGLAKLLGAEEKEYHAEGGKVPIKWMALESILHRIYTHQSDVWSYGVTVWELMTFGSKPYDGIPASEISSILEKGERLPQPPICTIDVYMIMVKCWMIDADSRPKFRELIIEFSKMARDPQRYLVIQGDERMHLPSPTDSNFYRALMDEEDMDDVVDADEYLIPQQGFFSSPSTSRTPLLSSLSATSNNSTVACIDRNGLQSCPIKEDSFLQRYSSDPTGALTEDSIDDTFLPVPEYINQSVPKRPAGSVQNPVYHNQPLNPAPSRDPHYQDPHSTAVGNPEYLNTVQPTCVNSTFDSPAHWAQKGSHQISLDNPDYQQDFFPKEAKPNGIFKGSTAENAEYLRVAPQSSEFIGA
T1 sequence (P00533 25-1210): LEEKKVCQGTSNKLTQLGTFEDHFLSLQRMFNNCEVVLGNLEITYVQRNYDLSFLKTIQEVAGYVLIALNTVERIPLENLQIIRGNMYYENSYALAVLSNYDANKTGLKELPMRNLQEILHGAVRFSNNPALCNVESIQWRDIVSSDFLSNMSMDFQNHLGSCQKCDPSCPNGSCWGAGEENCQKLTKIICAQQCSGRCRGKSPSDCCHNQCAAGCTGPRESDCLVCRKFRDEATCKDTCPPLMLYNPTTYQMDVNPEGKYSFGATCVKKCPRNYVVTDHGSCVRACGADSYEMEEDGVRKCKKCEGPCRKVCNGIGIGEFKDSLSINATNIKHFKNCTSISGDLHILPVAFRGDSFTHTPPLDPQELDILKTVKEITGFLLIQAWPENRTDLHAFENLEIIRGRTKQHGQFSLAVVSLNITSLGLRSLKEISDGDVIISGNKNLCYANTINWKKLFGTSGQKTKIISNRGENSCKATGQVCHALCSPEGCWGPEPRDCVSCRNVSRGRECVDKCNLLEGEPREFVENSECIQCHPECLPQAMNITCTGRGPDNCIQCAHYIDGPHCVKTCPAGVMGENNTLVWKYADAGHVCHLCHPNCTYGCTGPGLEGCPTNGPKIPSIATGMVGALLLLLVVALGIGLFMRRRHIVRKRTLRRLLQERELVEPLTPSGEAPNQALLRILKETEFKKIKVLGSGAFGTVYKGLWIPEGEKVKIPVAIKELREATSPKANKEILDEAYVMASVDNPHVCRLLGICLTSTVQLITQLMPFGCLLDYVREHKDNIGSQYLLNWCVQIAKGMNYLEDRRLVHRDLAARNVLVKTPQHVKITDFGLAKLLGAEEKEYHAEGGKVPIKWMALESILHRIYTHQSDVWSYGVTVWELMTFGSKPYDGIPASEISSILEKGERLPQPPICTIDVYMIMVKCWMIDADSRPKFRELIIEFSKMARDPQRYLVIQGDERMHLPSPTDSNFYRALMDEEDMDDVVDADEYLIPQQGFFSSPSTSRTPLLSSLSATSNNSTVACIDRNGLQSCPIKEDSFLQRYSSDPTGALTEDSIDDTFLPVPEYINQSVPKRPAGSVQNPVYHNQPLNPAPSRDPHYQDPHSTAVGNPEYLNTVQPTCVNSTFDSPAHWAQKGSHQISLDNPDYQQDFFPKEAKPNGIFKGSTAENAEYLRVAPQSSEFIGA

As to `COc1cc(N2CCC3(CC2)CN(C)CC(C)O3)c(-c2cnn(C)c2)cc1Nc1ncc(Br)c(Nc2ccc3nccnc3c2P(C)(C)=O)n1` (racemic) [compound 217, (6-((5-Bromo-2-((4-(2,4-dimethyl-1-oxa-4,9-diazaspiro[5.5]undecan-9-yl)-2-methoxy-5-(1-methyl-1H-pyrazol-4-yl)phenyl)amino)pyrimidin-4-yl)amino)quinoxalin-5-yl)dimethylphosphine oxide], the figures for the GI50 in test [1] and in test [2] were 0.94 nM and 3.29 nM, respectively. Further, the IC50 in test [3] was determined as 3.87 nM; in test [4] it was 0.95 nM; in test [5] (Homo sapiens, A-431, 72 h), 60.5 nM.
On the same counts, the results for `COc1cc(N2CCC3C(C2)CN3C)c(-c2cnn(C)c2)cc1Nc1ncc(Br)c(Nc2ccc3nccnc3c2P(C)(C)=O)n1` (racemic) [compound 221] are 2.41 nM, 2.79 nM, 1.37 nM, 0.09 nM and 26.2 nM.
The like results for `COc1cc(N2CCC(N3CC(F)C3)C2)c(-c2cnn(C)c2)cc1Nc1ncc(Br)c(Nc2ccc3nccnc3c2P(C)(C)=O)n1` (racemic) [compound 223, (6-((5-Bromo-2-((4-(3-(3-fluoroazetidin-1-yl)pyrrolidin-1-yl)-2-methoxy-5-(1-methyl-1H-pyrazol-4-yl)phenyl)amino)pyrimidin-4-yl)amino)quinoxalin-5-yl)dimethylphosphine oxide] were, in that order, 2.88 nM, 3.56 nM, 7 nM, 0.17 nM and 76.9 nM.
On the same counts, the results for `COc1cc(N2CC(C)OC(C)C2)c(-c2cnn(C)c2)cc1Nc1ncc(Br)c(Nc2ccc3nccnc3c2P(C)(C)=O)n1` (single isomer, unassigned) [155a] are 2.98 nM, 15.6 nM, 27.7 nM, 0.67 nM and 320 nM.
As to `COc1cc(N2CC(C)OC(C)C2)c(-c2cnn(C)c2)cc1Nc1ncc(Br)c(Nc2ccc3nccnc3c2P(C)(C)=O)n1` (single isomer, unassigned) [155b], the values for the GI50 in test [1] and in test [2] were 1.63 nM and 7.55 nM, respectively. The IC50 in test [3] came out at 21.6 nM; in test [4], 0.8 nM; in test [5] (72 hours), 213 nM.
As to `COc1cc(N2CCC3CCN(CC4CC4)C3C2)c(-c2cnn(C)c2)cc1Nc1ncc(Br)c(Nc2ccc3nccnc3c2P(C)(C)=O)n1` (single isomer, unassigned) [234a], the values for the GI50 in test [1] and in test [2] were 2.05 nM and 3.91 nM, respectively. Further, the IC50 in test [3] came out at 5.04 nM; in test [4], 0.32 nM; in test [5] (Homo sapiens, A-431, 72 h), 42.4 nM.
On the same counts, the results for `COc1cc(N2CC[C@@H]3CCN(CC4CC4)[C@@H]3C2)c(-c2cnn(C)c2)cc1Nc1ncc(Br)c(Nc2ccc3nccnc3c2P(C)(C)=O)n1` (single isomer, unassigned) [234b] are 2.52 nM, 5.65 nM, 5.44 nM, 0.37 nM and 38.4 nM.
The like results for `COc1cc(N2CCC3(CC2)CO[C@@H](C)[C@@H]3N(C)C)c(-c2cnn(C)c2)cc1Nc1ncc(Br)c(Nc2ccc3nccnc3c2P(C)(C)=O)n1` (stereo in doubt) [compound 201] were, in that order, 2.22 nM, 3.7 nM, 6.92 nM, 0.74 nM and 120 nM.
Take `COc1cc(N2CCOCC2)c(-c2cnn(C)c2)cc1Nc1ncc(Br)c(Nc2ccc3nccnc3c2P(C)(C)=O)n1` [Compound 1, (6-((5-bromo-2-((2-methoxy-5-(1-methyl-1H-pyrazol-4-yl)-4-morpholinophenyl)amino)pyrimidin-4-yl)amino)quinoxalin-5-yl)-dimethylphosphine oxide]: the GI50 in test [1] amounted to 0.58 nM; in test [2], 5.61 nM. Moreover, the IC50 is 0.94 nM in test [3]; 0.12 nM in test [4]; 137 nM in test [5] (Homo sapiens, A-431, 72 h).
In the case of `COc1cc(N2CCOCC2)c(-c2cnn(C)c2)cc1Nc1ncc(Br)c(Nc2ccccc2P(C)(C)=O)n1` [Compound 2, (2-((5-bromo-2-((2-methoxy-5-(1-methyl-1H-pyrazol-4-yl)-4-morpholinylphenyl)amino)pyrimidin-4-yl)amino)phenyl)dimethylphosphine oxide], the values for the GI50 in test [1] and in test [2] were 4.21 nM and 17.5 nM, respectively. The IC50 amounted to 18 nM in test [3]; 0.09 nM in test [4]; 316 nM in test [5] (Homo sapiens, A-431, 72 h).
The like results for `COc1cc(N2CCN(C)CC2)c(-c2cnn(C)c2)cc1Nc1ncc(Br)c(Nc2ccc3nccnc3c2P(C)(C)=O)n1` [Compound 6] were, in that order, 1.99 nM, 5.96 nM, 0.17 nM, less than 0.05 nM and 24.5 nM.
On the same counts, the results for `COc1nc(N2CCOCC2)c(-c2cnn(C)c2)cc1Nc1ncc(Br)c(Nc2ccc3nccnc3c2P(C)(C)=O)n1` [Compound 7, (6-((5-bromo-2-((2-methoxy-5-(1-methyl-1H-pyrazol-4-yl)-6-morpholinylpyridin-3-yl)amino)pyrimidin-4-yl)amino)quinoxalin-5-yl)dimethylphosphine oxide] are 4.43 nM, 14.8 nM, 9.88 nM, 0.23 nM and 159 nM.
The like results for `COc1cc(N2CCOCC2)c(-c2cnn(S(=O)(=O)C3CC3)c2)cc1Nc1ncc(Br)c(Nc2ccc3nccnc3c2P(C)(C)=O)n1` [Compound 8, (6-((5-bromo-2-((5-(1-(cyclopropylsulfonyl)-1H-pyrazol-4-yl)-2-methoxy-4-morpholinylphenyl)amino)pyrimidin-4-yl)amino)quinoxalin-5-yl)dimethylphosphine oxide] were, in that order, 69 nM, 137 nM, 358 nM, 3.19 nM and 769 nM.
Take `COc1cc(N2CCOCC2)c(-c2cnn(C)c2)cc1Nc1ncc(C#N)c(Nc2ccc3nccnc3c2P(C)(C)=O)n1` [Compound 13, 4-((5-(dimethylphosphoryl)quinoxalin-6-yl)amino)-2-((2-methoxy-5-(1-methyl-1H-pyrazol-4-yl)-4-morpholinylphenyl)amino)pyrimidine-5-carbonitrile]: the GI50 was 43.4 nM in test [1] and 84.3 nM in test [2]. For the same molecule, the IC50 in test [3] is 7.62 nM; in test [4], 0.89 nM; in test [5] (Homo sapiens, A-431, 72 h), 398 nM.
`COc1cc(N2CCC3(CC2)CN(C)C3)c(-c2cnn(C)c2)cc1Nc1ncc(Br)c(Nc2ccc3nccnc3c2P(C)(C)=O)n1` [Compound 16, (6-((5-bromo-2-((2-methoxy-5-(1-methyl-1H-pyrazol-4-yl)-4-(2-methyl-2,7-diazaspiro[3.5]nonan-7-yl)phenyl)amino)pyrimidin-4-yl)amino)quinoxalin-5-yl)dimethylphosphine oxide formate]: the GI50 in test [1] was found to be 13.2 nM; in test [2], 23.5 nM. The IC50 in test [3] is 0.51 nM; in test [4] it was 0.05 nM; in test [5] (Homo sapiens, A-431, 72 hours) it was 51.3 nM.
Regarding `Cn1cc(-c2cc(Nc3ncc(Br)c(Nc4ccc5nccnc5c4P(C)(C)=O)n3)c3c(c2N2CCOCC2)CCO3)cn1` [Compound 17, (6-((5-bromo-2-((5-(1-methyl-1H-pyrazol-4-yl)-4-morpholino-2,3-dihydrobenzofuran-7-yl)amino)pyrimidin-4-yl)amino)quinoxalin-5-yl)dimethylphosphine oxide], the GI50 in test [1] was 1.28 nM; in test [2], 2.13 nM. For the same molecule, the IC50 in test [3] came out at 3.61 nM; in test [4], 0.08 nM; in test [5] (Homo sapiens, A-431, 72 h), 67.8 nM.
The like results for `CCc1cnc(Nc2cc(-c3cnn(C)c3)c(N3CCOCC3)cc2OC)nc1Nc1ccc2nccnc2c1P(C)(C)=O` [Compound 31, (6-((5-ethyl-2-((2-methoxy-5-(1-methyl-1H-pyrazol-4-yl)-4-morpholinylphenyl)amino)pyrimidin-4-yl)amino)quinoxalin-5-yl)dimethylphosphine oxide] were, in that order, 4.58 nM, 12.8 nM, 0.38 nM, 0.25 nM and 194 nM.
